Source: patent US7795261B2, “Substituted 1-piperidin-4-yl-4-pyrrolidin-3-yl-piperazine derivatives and their use as neurokinin antagonists” (Janssen Pharmaceutica NV, priority 2002, dated 2010)

Tests used:
NK1 = NK1 (Homo sapiens, UniProt P25103); assay: Signal transduction (ST), intracellular Ca++ (FLIPR), NK1 antagonistic activity; assay type: cell-based; conditions: read-out: pIC50 NK1 (converted)
Protocol: (§1) This test evaluates in vitro functional NK1 antagonistic activity. For the measurements of intracellular Ca^++ concentrations the cells were grown on 96-well (black wall/transparent bottom) plates from Costar for 2 days until they reached confluence. The cells were loaded with 2 μM Fluo3 in DMEM containing 0.1% BSA and 2.5 mM probenecid for 1 h at 37° C. They were washed 3× with a Krebs buffer (140 mM NaCl, 1 mM MgCl2×6H2O, 5 mM KCl, 10 mM glucose, 5 mM HEPES; 1.25 mM CaCl2; pH 7.4) containing 2.5 mM probenecid and 0.1% BSA (Ca^++-buffer). The cells were preincubated with a concentration range of antagonists for 20 min at RT and Ca^++-signals after addition of the agonists were measured in a Fluorescence Image Plate Reader (FLIPR from Molecular Devices, Crawley, England). The peak of the Ca^++-transient was considered as the relevant signal and the mean values of corresponding wells were analysed as described below.
The sigmoidal dose response curves were analysed by computerised curve-fitting, using the GraphPad Program. […] For antagonist responses the IC50-value was calculated using non-linear regression. […]

NK3 = biological target: T1, NK3 (Homo sapiens, UniProt P29371); assay: Signal transduction (ST), intracellular Ca++ (FLIPR), NK3; assay type: cell-based; conditions: read-out: pIC50 NK3 (converted)
T1 sequence (P29371 1-465): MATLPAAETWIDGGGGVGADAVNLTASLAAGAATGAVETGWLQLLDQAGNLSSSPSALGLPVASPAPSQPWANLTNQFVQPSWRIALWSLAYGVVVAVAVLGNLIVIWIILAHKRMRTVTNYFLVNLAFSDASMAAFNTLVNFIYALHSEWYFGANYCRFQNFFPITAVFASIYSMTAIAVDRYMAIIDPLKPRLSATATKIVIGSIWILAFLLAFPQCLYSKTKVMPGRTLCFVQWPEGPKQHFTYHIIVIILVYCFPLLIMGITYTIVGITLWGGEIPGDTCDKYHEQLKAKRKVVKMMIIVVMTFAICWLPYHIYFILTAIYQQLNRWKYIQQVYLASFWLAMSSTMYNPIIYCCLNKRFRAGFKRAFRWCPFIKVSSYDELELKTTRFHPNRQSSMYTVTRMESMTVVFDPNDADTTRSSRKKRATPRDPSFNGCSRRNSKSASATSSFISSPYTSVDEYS
Protocol: [The procedure below names another target; the source lists this target under the same test.] as §1
The sigmoidal dose response curves were analysed by computerised curve-fitting, using the GraphPad Program. […] For antagonist responses the IC50-value was calculated using non-linear regression.
The last columns indicates—without being limited therefore—for which the compounds might be most suitable. Of course, since for some neurokinin receptors no data was determined, it is obvious that these compounds might be attributed to another suitable use.

Chain of NK1 (P25103 whole entry): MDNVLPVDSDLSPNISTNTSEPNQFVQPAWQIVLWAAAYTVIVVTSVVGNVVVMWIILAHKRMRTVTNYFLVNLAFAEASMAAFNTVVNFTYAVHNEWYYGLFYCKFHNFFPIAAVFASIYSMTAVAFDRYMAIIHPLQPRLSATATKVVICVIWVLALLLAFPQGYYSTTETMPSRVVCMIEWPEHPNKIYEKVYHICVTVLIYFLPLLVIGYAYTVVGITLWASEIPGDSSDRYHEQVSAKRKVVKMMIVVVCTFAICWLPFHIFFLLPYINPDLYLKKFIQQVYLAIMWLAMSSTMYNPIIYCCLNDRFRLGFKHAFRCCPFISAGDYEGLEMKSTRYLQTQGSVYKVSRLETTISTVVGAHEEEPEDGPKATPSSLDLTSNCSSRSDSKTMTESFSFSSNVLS

| SMILES | IC50 (NK1) [nM] | IC50 (NK3) [nM] |
| --- | --- | --- |
| COC(C(=O)N1CCC(N2CCN(C3CCN(C(=O)c4cc(C(F)(F)F)cc(C(F)(F)F)c4)C(Cc4ccccc4)C3)CC2)C1)c1ccccc1 (centres unmarked) [Compound 109] | 12.6 | 7940 |
| O=C(CNc1ccccc1CO)N1CCC(N2CCN(C3CCN(C(=O)c4cc(C(F)(F)F)cc(C(F)(F)F)c4)C(Cc4ccccc4)C3)CC2)C1 (centres unmarked) [Compound 207] | 20 | 3980 |
| Cc1ccccc1-n1cncc1CN1CCC(N2CCN([C@H]3CCN(C(=O)c4cc(C(F)(F)F)cc(C(F)(F)F)c4)[C@H](Cc4ccccc4)C3)CC2)C1 (some centres unmarked) [Compound 9] | 39.8 | 1260 |
| CC1(C)OC(=O)[C@@H](CC(=O)N2CCC(N3CCN([C@H]4CCN(C(=O)c5cc(C(F)(F)F)cc(C(F)(F)F)c5)[C@H](Cc5ccccc5)C4)CC3)C2)O1 (some centres unmarked) [Compound 392] | 251 | 7940 |
| Cc1nc2c(o1)CCn1ccnc1C2N1CCC(N2CCN(C3CCN(C(=O)c4cc(C(F)(F)F)cc(C(F)(F)F)c4)C(Cc4ccccc4)C3)CC2)C1 (centres unmarked) [Compound 375] | 12.6 | 3980 |
| Cc1oc(-c2ccccc2)cc1C(=O)N1CCC(N2CCN([C@H]3CCN(C(=O)c4cc(C(F)(F)F)cc(C(F)(F)F)c4)[C@H](Cc4ccccc4)C3)CC2)C1 (some centres unmarked) [Compound 38] | 200 | 7940 |
| O=C(c1cc(C(F)(F)F)cc(C(F)(F)F)c1)N1CCC(N2CCN(C3CCN(Cc4ccccc4)C3)CC2)CC1Cc1ccc(F)c(F)c1 (single isomer, unassigned) [Compound 222] | 50.1 | 6310 |
| CC(C)Oc1cccc(C(=O)N2CCC(N3CCN([C@H]4CCN(C(=O)c5cc(C(F)(F)F)cc(C(F)(F)F)c5)[C@H](Cc5ccccc5)C4)CC3)C2)c1 (some centres unmarked) [Compound 15] | 31.6 | 2000 |
| CC(C)(C)OC(=O)N1CCCC(C(=O)N2CCC(N3CCN([C@H]4CCN(C(=O)c5cc(C(F)(F)F)cc(C(F)(F)F)c5)[C@H](Cc5ccccc5)C4)CC3)C2)C1 (some centres unmarked) [Compound 229] | 31.6 | 2510 |
| O=C(c1cc(C(F)(F)F)cc(C(F)(F)F)c1)N1CC[C@@H](N2CCN(C3CCN(S(=O)(=O)c4cccs4)C3)CC2)C[C@H]1Cc1ccc(Cl)c(Cl)c1 (relative stereo) [Compound 142] | 126 | 794 |
| Cc1nnsc1C(=O)N1CCC(N2CCN(C3CCN(C(=O)c4cc(C(F)(F)F)cc(C(F)(F)F)c4)C(Cc4ccc(Cl)c(Cl)c4)C3)CC2)C1 (centres unmarked) [Compound 161] | 12.6 | 3160 |
| O=C(C1CCc2cc(F)ccc2O1)N1CCC(N2CCN([C@H]3CCN(C(=O)c4cc(C(F)(F)F)cc(C(F)(F)F)c4)[C@H](Cc4ccccc4)C3)CC2)C1 (some centres unmarked) [Compound 61] | 31.6 | 6310 |
| O=C(c1cnccn1)N1CCC(N2CCN(C3CCN(C(=O)c4cc(C(F)(F)F)cc(C(F)(F)F)c4)C(Cc4ccc(F)c(F)c4)C3)CC2)C1 (single isomer, unassigned) [Compound 237] | 10 | 3980 |
| O=C(c1ccc(CCOCc2ccccc2)s1)N1CCC(N2CCN(C3CCN(C(=O)c4cc(C(F)(F)F)cc(C(F)(F)F)c4)C(Cc4ccccc4)C3)CC2)C1 (centres unmarked) [Compound 356] | 126 | 3980 |
| Cn1c(N2CCC(N3CCN([C@H]4CCN(C(=O)c5cc(C(F)(F)F)cc(C(F)(F)F)c5)[C@H](Cc5ccccc5)C4)CC3)C2)nc2ccccc21 (some centres unmarked) [Compound 8] | 100 | 3980 |
| COc1ccc2[nH]c(C(=O)N3CCC(N4CCN([C@H]5CCN(C(=O)c6cc(C(F)(F)F)cc(C(F)(F)F)c6)[C@H](Cc6ccccc6)C5)CC4)C3)cc2c1 (some centres unmarked) [Compound 55] | 316 | 7940 |
| O=C(c1snnc1-c1ccccc1)N1CCC(N2CCN([C@H]3CCN(C(=O)c4cc(C(F)(F)F)cc(C(F)(F)F)c4)[C@H](Cc4ccccc4)C3)CC2)C1 (some centres unmarked) [Compound 53] | 39.8 | 3160 |
| O=C(c1cc(C(F)(F)F)cc(C(F)(F)F)c1)N1CCC(N2CCN(C3CCN(Cc4ccccc4)C3)CC2)CC1Cc1ccc(F)c(F)c1 (single isomer, unassigned) [Compound 223] | 158 | 1580 |
| O=C(c1cc(C(F)(F)F)cc(C(F)(F)F)c1)N1CCC(N2CCN(C3CCN(c4noc5ccccc45)C3)CC2)CC1Cc1ccccc1 (centres unmarked) [Compound 204] | 25.1 | 2510 |
| Cn1c(C(=O)N2CCC(N3CCN([C@H]4CCN(C(=O)c5cc(C(F)(F)F)cc(C(F)(F)F)c5)[C@H](Cc5ccccc5)C4)CC3)C2)cc2ccccc21 (some centres unmarked) [Compound 57] | 126 | 3160 |
| O=C(c1cc(C(F)(F)F)cc(C(F)(F)F)c1)N1CC[C@H](N2CCN(C3CCN(C(=C[N+](=O)[O-])N4CCCC4)C3)CC2)C[C@H]1Cc1ccccc1 (some centres unmarked) [Compound 377] | 15.8 | 6310 |
| CC(C)(C)OC(=O)N1CCC(C(=O)N2CCC(N3CCN([C@H]4CCN(C(=O)c5cc(C(F)(F)F)cc(C(F)(F)F)c5)[C@H](Cc5ccccc5)C4)CC3)C2)CC1 (some centres unmarked) [Compound 210] | 15.8 | 7940 |
| O=C(C(=O)N1CCC(N2CCN([C@H]3CCN(C(=O)c4cc(C(F)(F)F)cc(C(F)(F)F)c4)[C@H](Cc4ccccc4)C3)CC2)C1)c1cccs1 (some centres unmarked) [Compound 188] | 25.1 | 2000 |
| CC(C)(C)OC(=O)N1CCC(N2CCN(C3CCN(C(=O)c4cc(C(F)(F)F)cc(C(F)(F)F)c4)C(Cc4ccc(Cl)c(Cl)c4)C3)CC2)C1 (single isomer, unassigned) [Compound 165] | 50.1 | 794 |

Continued, values first:

| IC50 (NK1) [nM] | IC50 (NK3) [nM] | SMILES |
| --- | --- | --- |
| 25.1 | 200 | Cc1occc1C(=O)N1CCC(N2CCN([C@H]3CCN(C(=O)c4cc(C(F)(F)F)cc(C(F)(F)F)c4)[C@H](Cc4ccccc4)C3)CC2)C1 (some centres unmarked) [Compound 36] |
| 39.8 | 3980 | Cc1cc(C(=O)N2CCC(N3CCN([C@H]4CCN(C(=O)c5cc(C(F)(F)F)cc(C(F)(F)F)c5)[C@H](Cc5ccccc5)C4)CC3)C2)no1 (some centres unmarked) [Compound 47] |
| 5.01 | 2510 | Cc1nnsc1C(=O)N1CCC(N2CCN(C3CCN(C(=O)c4cc(C(F)(F)F)cc(C(F)(F)F)c4)C(Cc4ccccc4)C3)CC2)C1 (single isomer, unassigned) [Compound 381] |
| 158 | 6310 | O=C(C1CC1)N1CCC(N2CCN(C3CCN(C(=O)c4cc(C(F)(F)F)cc(C(F)(F)F)c4)C(Cc4ccccc4)C3)CC2)C1 (single isomer, unassigned) [Compound 137] |
| 6.31 | 1580 | O=C(C1CCC1)N1CCC(N2CCN([C@H]3CCN(C(=O)c4cc(C(F)(F)F)cc(C(F)(F)F)c4)[C@H](Cc4ccccc4)C3)CC2)C1 (some centres unmarked) [Compound 179] |
| 126 | 5010 | O=C(c1ccc(F)c(F)c1)N1CCC(N2CCN([C@H]3CCN(C(=O)c4cc(C(F)(F)F)cc(C(F)(F)F)c4)[C@H](Cc4ccccc4)C3)CC2)C1 (some centres unmarked) [Compound 20] |
| 10 | 398 | O=C(c1ccccc1Cl)N1CCC(N2CCN(C3CCN(C(=O)c4cc(C(F)(F)F)cc(C(F)(F)F)c4)C(Cc4ccccc4)C3)CC2)C1 (single isomer, unassigned) [Compound 160] |
| 126 | 3160 | O=C(c1cc2ccccc2s1)N1CCC(N2CCN([C@H]3CCN(C(=O)c4cc(C(F)(F)F)cc(C(F)(F)F)c4)[C@H](Cc4ccccc4)C3)CC2)C1 (some centres unmarked) [Compound 63] |
| 10 | 631 | N#Cc1cccc(C(=O)N2CCC(N3CCN(C4CCN(C(=O)c5cc(C(F)(F)F)cc(C(F)(F)F)c5)C(Cc5ccccc5)C4)CC3)C2)c1 (single isomer, unassigned) [Compound 192] |
| 158 | 6310 | O=C(C1CCOC1)N1CCC(N2CCN(C3CCN(C(=O)c4cc(C(F)(F)F)cc(C(F)(F)F)c4)C(Cc4ccccc4)C3)CC2)C1 (single isomer, unassigned) [Compound 139] |
| 15.8 | 2510 | Cc1noc(C)c1C(=O)N1CCC(N2CCN([C@H]3CCN(C(=O)c4cc(C(F)(F)F)cc(C(F)(F)F)c4)[C@H](Cc4ccccc4)C3)CC2)C1 (some centres unmarked) [Compound 48] |
| 31.6 | 2000 | COCCC(=O)N1CC[C@H](N2CCN([C@H]3CCN(C(=O)c4cc(C(F)(F)F)cc(C(F)(F)F)c4)[C@H](Cc4ccccc4)C3)CC2)C1 [Compound 413] |
| 31.6 | 1580 | O=C(c1ccno1)N1CCC(N2CCN([C@H]3CCN(C(=O)c4cc(C(F)(F)F)cc(C(F)(F)F)c4)[C@H](Cc4ccccc4)C3)CC2)C1 (some centres unmarked) [Compound 68] |
